Bridge positions count the residues as written; N and C are the ends. Peptide text beside a SMILES is read from it.
What was measured:
Kv1.3 [1] = biological target: T1, Kv1.3 (Homo sapiens, UniProt P22001); experiment: cell-based
[2] = test system: K+ channels in PC12 cells
Kv1.3 [3] = biological target: T1, Kv1.3
[4] = biological target: Kv1.3 potassium channel (transiently transfected into HEK293 cells); experiment: cell-based or functional assay
[5] = biological target: Kv1.3 potassium channel (transiently transfected into HEK293 cells)

T1 sequence (P22001 whole entry): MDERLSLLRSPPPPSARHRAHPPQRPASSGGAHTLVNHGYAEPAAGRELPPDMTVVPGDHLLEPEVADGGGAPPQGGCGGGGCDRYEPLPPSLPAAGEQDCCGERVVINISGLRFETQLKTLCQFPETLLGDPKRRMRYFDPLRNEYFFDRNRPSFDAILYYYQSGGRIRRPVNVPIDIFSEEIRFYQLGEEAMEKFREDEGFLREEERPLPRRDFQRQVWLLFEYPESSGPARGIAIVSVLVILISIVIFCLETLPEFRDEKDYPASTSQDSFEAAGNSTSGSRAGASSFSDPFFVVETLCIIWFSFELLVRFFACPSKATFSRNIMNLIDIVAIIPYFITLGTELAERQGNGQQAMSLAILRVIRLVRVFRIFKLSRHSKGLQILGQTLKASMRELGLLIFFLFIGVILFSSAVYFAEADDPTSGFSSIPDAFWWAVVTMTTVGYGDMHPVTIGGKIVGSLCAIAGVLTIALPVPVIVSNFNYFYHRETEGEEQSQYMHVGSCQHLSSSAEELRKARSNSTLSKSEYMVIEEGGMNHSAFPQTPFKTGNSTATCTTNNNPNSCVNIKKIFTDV

| Molecule | Kd (Kv1.3 [1]) | block of K+ channels [2] | V50 of steady-state activation curve (Boltzmann fit) (Kv1.3 [3]) | V50 of steady-state current-voltage relationship (Kv1.3 [3]) | V50 of steady-state current-voltage relationship after washing the toxin (Kv1.3 [3]) | reduction of Kv1.3 currents (Kv1.3 [3]) | reversibility of block (Kv1.3 [3]) | voltage dependence of reduction in K+ current (Kv1.3 [3]) | reduction of Kv1.3 K+ currents (whole-cell voltage clamp, HEK293) [4] | Kd [5] |
| --- | --- | --- | --- | --- | --- | --- | --- | --- | --- | --- |
| CC[C@H](C)[C@@H]1NC(=O)[C@@H](NC(=O)[C@H](CCCNC(=N)N)NC(=O)CNC(=O)[C@H](CC(C)C)NC(=O)CNC(=O)CN)CSSC[C@@H](C(=O)N[C@@H](Cc2ccc(O)cc2)C(=O)O)NC(=O)[C@H](CCSC)NC(=O)[C@H]([C@@H](C)O)NC(=O)[C@H](CCCCN)NC(=O)[C@@H]2CSSC[C@H](NC(=O)[C@H](CC(N)=O)NC(=O)[C@H](Cc3ccc(O)cc3)NC1=O)C(=O)N[C@@H](CCSC)C(=O)N[C@@H](CC(N)=O)C(=O)N[C@@H](CO)C(=O)NCC(=O)NCC(=O)NCC(=O)N[C@@H](CC(C)C)C(=O)N[C@@H](CO)C(=O)N[C@@H](Cc1ccccc1)C(=O)N[C@@H]([C@@H](C)CC)C(=O)N[C@@H](CCC(N)=O)C(=O)N2 [vil14a] (H-GGLGRCIYNCMNSGGGLSFIQCKTMCY-OH; disulfide 6-26, 10-22) | 15.6 µM | blocks K^+ channels | +9 mV | 19 mV | −4.4 mV | ≈ 39% | reversible | voltage dependent | – | – |
| vil14a conotoxin (framework 14 conotoxin from Conus villepinii) (peptide) | – | – | – | – | – | – | – | – | 39% | 15.6 µM |
